Results taken from US7589193B2, “C-aryl glucoside SGLT2 inhibitors and method” (Bristol-Myers Squibb Company, priority 2004, dated 2009).
Where two headings read alike, the source gives them in different places.

Experiments:
[1] = test system: STZ diabetic rats; experiment: Determination of blood glucose effect in streptozotocin-treated diabetic rats (Study A); format: in vivo, rat (male Sprague Dawley); conditions: oral 0.1 mg/kg
Method: I. Protocol for Study A: Determination of Blood Glucose Effect in Streptozotocin-Treated Diabetic Rats
The following analysis was utilized to reasonably predict the impact on plasma glucose for the compounds analyzed in the matrix above.
Male Sprague Dawley rats (Charles River) weighing 250-275 g were made diabetic by a single intraperitoneal injection of streptozotocin (Sigma) at 65 mg/kg, prepared in fresh cold (4° C.) 0.01 M citrate buffer. Four days later, animals were bled in the fed state. Whole blood was collected via the tail tip and analyzed for glucose by the glucose oxidation method with a Glucometer Elite (Bayer). Mean blood glucose levels ranged from 450-550 mg/dl.
On the day of the experiment, the compound was dissolved in the vehicle comprised of 5% m-Pyrol, 20% PEG 400 and 20 mM Sodium Diphosphate. Rats were weighed, randomized into 4 groups with 6 rats in each group, and dosed orally with the vehicle or 0.1 mg/kg of the compound. The total volume for oral gavage was 1 ml/kg body weight. After dosing, the food was removed from the cages and the rats had access to water ad lib during the experiment. Blood samples were obtained from the tail tip at 0, 30, 60, 120, 180, 240 and 300 minutes following drug administration. Blood glucose was analyzed by the glucose oxidation method with a Glucometer Elite (Bayer).
A. Statistical Data Analysis
The calculation of mean blood glucose values and percent changes vs. vehicle at each time point were performed using Microsoft Excel. Statistical analyses (T tests, or ANOVA followed by Fisher's test) comparing drug-treated groups vs. vehicle controls) were performed using Microsoft Excel or the statistical program StatView. A p value of less that 0.05 was considered to be statistically significant.

[2] = Stability in presence of commonly used solid excipients under accelerated aging conditions (Study B); format: physicochemical; conditions: for Stability in a prototypical formulation: drug-excipient blends, accelerated aging conditions, 1 and 3 weeks, HPLC analysis
Source text: II. Protocol for Study B: Stability Determination of Oxidatively Labile Therapeutic Agent in Presence of Commonly Used Solid Excipients, Under Accelerated Aging Conditions
The following procedure was utilized to access the chemical stability of the compound 3 in the presence of commonly used excipients and typical antioxidants.
The drug substance was triturated in a mortar pestle with the respective antioxidant, and then mixed in the dry state with other excipients listed in the following table. Sodium metabisulfite and butylated hydroxyl anisole (BHA) were used as antioxidants in this study. BHA was used at two levels, 0.01% w/w and 0.5% w/w, and sodium metabisulfite was used at 0.01% w/w. For samples stored at 40° C./[…] and HIL/uv, oxygen gas was purged into the vials and they were tightly capped. The drug-excipient blends (A-D) were placed under the different accelerated aging conditions listed within the second table for 1 and 3 weeks prior to HPLC analysis.

[3] = test system: Chinese hamster ovary (CHO) cells; experiment: Cytogenetics study in Chinese hamster ovary cells, in vitro clastogenicity / chromosome aberration (Study C); conditions: 3 hr with/without S9, 20 hr without S9
Source text: (§1) The following protocol was utilized to predict the in vitro clastogenicity activity of compounds of therapeutic interest.
(§2) Clastogenicity was predicted by determining the potential of compounds of interest to induce structural chromosome damage in Chinese hamster ovary (CHO) cells.
(§3) The vehicle control is dimethyl sulfoxide (DMSO). The positive controls were Mitomycin C for the 3-hr and 20-hr exposure without S9 activation and cyclophosphamide for the 3-hr exposure with S9 rat-liver enzymes. Both Mitomycin C and cyclophosphamide were diluted with sterile water.
(§4) Two stock solutions in DMSO of the compound of interest were prepared—one being a high concentration, the other low. Aliquots of the vehicle control, low and high dosing solutions were collected following treatment of the CHO cells and subsequently analyzed to determine the concentration of the compound of interest. […] Once the upper limit of solubility of the compound of interest was determined in DMSO, that DMSO solution is added to culture medium to determine effects on pH or osmmolality. […]
(§5) The DMSO stock solution of the compound of interest was 100× concentration of the highest test-article concentration to be used in the full assay. […] The cytotoxicity dose response observed in the range finding study determined the serial dilution factor for the five lower doses. […]

[4] = test system: Chinese hamster ovary (CHO) cells
Source text: as §1, §2, §3, §4, §5

Stability in a prototypical formulation [2] | Chemical stability in the presence of excipients commonly used in solid dosage forms [2] | SMILES | % Decrease of plasma glucose in STZ diabetic rats at 5 hr after an oral dose of 0.1 mg/kg vs. vehicle treated controls [1] | In vitro clastogenic activity [3] | In vitro clastogenic activity [4]
Yes | chemically stable | CCc1ccc(Cc2cc([C@@H]3O[C@H](CO)[C@@H](O)[C@H](O)[C@H]3O)ccc2Cl)cc1 [Compound 1] | 62% | – | –
No | – | CSc1ccc(Cc2cc([C@@H]3O[C@H](CO)[C@@H](O)[C@H](O)[C@H]3O)ccc2C)cc1 [Compound 3] | 59% | – | –
Yes | chemically stable | CCc1ccc(Cc2cccc([C@@H]3O[C@H](CO)[C@@H](O)[C@H](O)[C@H]3O)c2)cc1 [Compound 5] | 34% | – | Yes

SMILES | Stability in a prototypical formulation [2] | Chemical stability in the presence of excipients commonly used in solid dosage forms [2] | % Decrease of plasma glucose in STZ diabetic rats at 5 hr after an oral dose of 0.1 mg/kg vs. vehicle treated controls [1] | In vitro clastogenic activity [3] | In vitro clastogenic activity [4]
CCOc1ccc(Cc2cc([C@@H]3O[C@H](CO)[C@@H](O)[C@H](O)[C@H]3O)ccc2Cl)cc1 [Compound 4] | Yes | chemically stable | 60% | Yes | –
